In publication PMC6829886, “Inhibition of Non-Small Cell Lung Cancer Cells by Oxy210, an Oxysterol-Derivative that Antagonizes TGFβ and Hedgehog Signaling” (Cells, 2019):
Like-named read-outs stand apart in the source and are kept apart here.

What was measured:
Assay type in all cases: cell-based, human
[1] = tested on: GLI1, GLI2, SHH mRNA in A549 NSCLC cells; assay: GLI and SHH mRNA expression in A549 cells (Q-RT-PCR)
Description: Total RNA was extracted with the RNeasy Plus Mini Kit from Qiagen (Hilden, Germany) according to the manufacturer’s instructions. One microgram of RNA was reverse-transcribed using an iScript Reverse Transcription Supermix from Bio-Rad Laboratories (Hercules, CA, USA) to make single-stranded cDNA. The cDNAs were then mixed with Qi SYBR Green Supermix (Bio-Rad) for quantitative RT-PCR assay using a Bio-Rad I-cycler IQ quantitative thermocycler. All PCR samples were prepared in triplicate wells in a 96-well plate. After 40 cycles of PCR, melt curves were examined in order to ensure primer specificity. Fold changes in gene expression were calculated using the ΔΔCt method. Primers used for mouse were as follows: Oaz1 (5′-CCACTGCTTCGCCAGAGAG-3′) and (5′-CCCGGACCCAGGTTACTA-3′), Gli1 (5′- […]-3′ and 5′- GCT GATCCAGCCTAAGGTTCTC-3′), Ptch1 (5′-CCATCGGCGACAAGAACC-3′ and 5′-[…]-3′), Thbs1 (5′-[…]-3′ and 5′-CGGGGATCAGGTTGGCATT-3′), Cryab (5′-[…]-3′ and 5′-[…]-3′), Egr2 (5′-[…]-3′ and 5′-[…]-3′), CTGF (5′-GGGCCTCTTCTGCGATTTC-3′ and 5′-[…]-3′).
Primers used for human were as follows: GAPDH (5′- […]-3′ and 5′- […]-3′), SHH (5′- CGGAGCGAGGAAGGGAAAG-3′) and (5′- […]-3′), GLI1 (5′- GAAGCCGAGCCGAGTATC-3′ and 5′-[…]-3′), GLI2 (5′-[…]-3′ and 5′-[…]-3′), Fn-EDA (5′- […]-3′ and 5′- […]-3′), E-Cadherin (5′- […]-3′ and 5′- TCCCAGGCGTAGACCAAGA-3′), SNAIL (5′- […]-3′ and 5′- […]-3′), N-Cadherin (5′- […]-3′ and 5′- […]-3′), Vimentin (5′- […]-3′ and 5′- […]-3′), ZO-1 (5′- […]-3′ and 5′- […]-3′), MMP2 (5′- […]-3′ and 5′- […]-3′), MMP9 (5′-[…]-3′ and 5′-[…]).
(§1) Figure 6 Inhibition of Glis and SHH expression in Non-Small Cell Lung Cancer (NSCLC) cells. A549 (a) and H2030 (b) cells were treated with Oxy210 in RPMI 1640 containing 5% FBS for 72 h, then RNA was extracted and analyzed by Q-RT-PCR for the expression of the indicated genes and normalized to GAPDH expression. (c) A549 cells were pretreated for 2 h with Oxy210 in RPMI 1640 containing 5% FBS. […] After 48 h, RNA was extracted and analyzed by Q-RT-PCR for the expression of Gli1 and Shh and normalized to GAPDH expression. […]

[2] = tested on: GLI1, GLI2 mRNA in H2030 NSCLC cells; assay: GLI mRNA expression in H2030 cells (Q-RT-PCR); settings: 5 μM, 72 h
Description: Total RNA was extracted with the RNeasy Plus Mini Kit from Qiagen (Hilden, Germany) according to the manufacturer’s instructions. One microgram of RNA was reverse-transcribed using an iScript Reverse Transcription Supermix from Bio-Rad Laboratories (Hercules, CA, USA) to make single-stranded cDNA. The cDNAs were then mixed with Qi SYBR Green Supermix (Bio-Rad) for quantitative RT-PCR assay using a Bio-Rad I-cycler IQ quantitative thermocycler. All PCR samples were prepared in triplicate wells in a 96-well plate. After 40 cycles of PCR, melt curves were examined in order to ensure primer specificity. Fold changes in gene expression were calculated using the ΔΔCt method. […]
as §1, with “expression.” for “expression. (c) A549 cells were pretreated for 2 h with Oxy210 in RPMI 1640 containing 5% FBS.”

[3] = tested on: H2030 cells; assay: Cell counting (proliferation) assay in H2030 cells; settings: for IC50 / IC90: Homo sapiens, NCI-H2030
Description: A549 and H2030 cells cultured in RPMI 1640 containing 5% FBS in 12 well-plates at 20% confluence were treated with Oxy210 for 6 days and then trypsinized, spun down and resuspended in fresh medium. For the Carboplatin (CP) and Oxy210 co-treatment experiments, A549 cells cultured in RPMI 1640 containing 2% FBS in 12 well-plates at 20% confluence were treated with CP at different concentrations in the presence or absence of Oxy210 for 6 days. For the TGFβ-induced drug resistance assay, A549 cells cultured in RPMI 1640 containing 2% FBS in 12 well-plates at 10% confluence were pre-treated with TGFβ1 alone or together with Oxy210 for 3 days, and then treated with 20 μM CP for 4 days. An aliquot of cell suspension was applied to a hemocytometer and the cells were then counted under a light microscope.
Statistical analyses were performed using the StatView 5 program (SAS Institute, Cary, NC, USA). All p values were calculated using ANOVA and Fisher’s projected least significant difference (PLSD) significance test. A value of p < 0.05 was considered significant. The IC 50 dose-response curves shown in Figure 4b and Figure 7a–c were modeled using a five-parameter logistic model. This model allows for asymmetric curves and automatically estimates the mean maximum and minimum response. Based on this model, IC 50 values were estimated corresponding to the dose halfway between min and max response. Models of dose versus response and dose versus log response were also evaluated (see Supplementary Materials). The R square statistic was computed as a measure of model fit.
Figure 7 Inhibition of NSCLC cell proliferation by Oxy210. A549 (a), (c) and H2030 (b) cells were treated with the test agents as indicated in RPMI 1640 containing 5% FBS for 5 days and then were trypsinized and counted as described in Methods and Materials section. Data from a representative experiment are reported as the mean of triplicate determinations ± SD (* p < 0.05 vs. control; ** p < 0.01 vs. control).

C[C@]12CC[C@H]3[C@@H](CC=C4C[C@@H](O)CC[C@@]43C)[C@@H]1CC[C@@H]2[C@](C)(O)CCc1cccnc1 [Oxy210, (3S,8S,9S,10R,13S,14S,17S)-17-((R)-2-hydroxy-4-(pyridin-3-yl)butan-2-yl)-10,13-dimethyl-2,3,4,7,8,9,10,11,12,13,14,15,16,17-tetradecahydro-1H-cyclopenta[a]phenanthren-3-ol]
mRNA expression of GLI1 and GLI2 ([1]; 5 μM, 72 h): significantly inhibited | expression of SHH mRNA ([1]; 72 h): significantly inhibited | expression of GLI1 and SHH mRNA induced by TGFβ ([1]; TGFβ 10 ng/mL, 48 h): completely inhibited | mRNA expression of GLI1 and GLI2 [2]: significantly inhibited | IC10 Estimate, dataset 3 - Fig 7b, log 10 scale Y ([3]; H2030 cells/well, log 10 scale Y): 1.89 | IC10 Estimate, dataset 3 - Fig 7b, original scale Y ([3]; H2030 cells/well, original scale Y): 420 nM | IC50 ([3]; H2030 cells, 5% FBS, ± SE, read-out: IC50, anti-proliferative effect (cell counting)): 1660 ± 250 nM | IC50 ([3]; H2030 cells/well, log 10 scale Y, read-out: IC 50 Estimate, dataset 3 - Fig 7b, log 10 scale Y (converted)): 2520 nM | IC90 ([3]; H2030 cells/well, log 10 scale Y, read-out: IC90 Estimate, dataset 3 - Fig 7b, log 10 scale Y (converted)): 3370 nM | IC90 ([3]; H2030 cells/well, original scale Y, read-out: IC90 Estimate, dataset 3 - Fig 7b, original scale Y): 4090 nM
